The target in this test is mitochondrial ETC complex I (NADH-ubiquinone oxidoreductase) (Homo sapiens, UniProt O75251+O75306+P03886). Nature of the test: Oxygen consumption. It counts as cell-based.

The record followed here is publication PMC3139250 (Phytochemistry letters, 2011).

Broadly, the IC50 is the concentration that inhibits the measured activity by half. High values mean a need for much substance, low ones inhibition by little substance. Consider `CC(C)(O)[C@H]1CC[C@](C)([C@@H](O)CC[C@](C)(O)[C@H]2CC[C@H]3O[C@@H]([C@]4(C)CC[C@@H](Br)C(C)(C)O4)CC[C@]3(C)O2)O1` [compound 1, thyrsiferol], for which it took 3 µM to reach half-maximal inhibition (IC50).
